Laboratory results as given in US7348363B2, “Method of controlling zoological and aquatic plant growth” (priority 2000, dated 2008).

Tests used:
Zebra mussel larvae = Zebra mussel larvae bioassay; format: in vivo, Dreissena polymorpha
Protocol: Zebra mussel broodstock were maintained in natural well water with calcium and magnesium adjusted to a hardness level equivalent to approximately 25 mg/l hardness.
(§1) At 20° C., larvae remain in the free-swimming state for 30-40 days prior to settlement. Bioassays using early larval stages of this species are variants on standard oyster embryo bioassays. Assays are conducted at the embryo, trochophore and D-hinge stage.
The assays examined the toxicity of various quinones to the earliest life history stages, namely embryo to trochophore stage (2-17 hours); trochophore stage (2-17 hours); trochophore to D-hinge stage (17-48 hours); and embryo to D-hinge stage (2-48 hours).
Approximately 25 adults from broodstock (held at 10-12° C.) were cleaned of debris and transferred to 1500 ml glass beakers containing approximately 800 ml of culture water. Water temperature was rapidly raised to 30-32° C. by the addition of warm water. Mussels treated this way usually spawn within 30 minutes. If no spawning occurred within this time, a slurry made from ripe gonads homogenized in culture water is added.
A successful spawn yielded >50,000 eggs/female. To check for successful fertilization, zygotes were transferred to a Sedgewick-Rafter cell for counting and examination under a binocular microscope. Fertilized eggs were seen to be actively dividing and reached the 8-cell stage between 2-3 hours following fertilization. A better than 70% fertilization rate is considered indicative of viable experimental material.
Assays were conducted on at least 500 embryos/larvae in each of 4 replicates. A range of 5 test concentrations (in the ppm range) plus controls were used. A density of 10 embryos per ml were used for embryo assays, and for D-hinge larvae 2-larvae/ml were used. The tests were static non-renewal. Any assay lasting 24 hours or longer received food (cultured Neochloris @5×10^4 cells ml-1) at 24 hour intervals.
Following counting and adjustment of densities, embryo assays were started as early as 2 hours following fertilization by inoculating a known number of embryos into the test media. Late stages were held in culture water until inoculation. Survivors were counted using Sedgewick-Rafter cells, with adjustments for control mortality using Abbott's formula. Probit and Dunnett's test are used to obtain the LD50, Lowest Observed Effect Concentration (LOEC) and No Observed Effect Concentration (NOEC) (Toxcalc 5.0).

T. isochrysis galbana = assay: Phytoplankton assay, Isochrysis galbana; format: cell-based
Protocol: The dinoflagellate prorocentrum minimum was cultured at the Chesapeake Biological Laboratory culture facility from in-house stocks grown up as a 1 liter culture in sterilized 16 ppt salinity filtered water fortified with f/2 nutrient media. The culture was diluted to 5 liters with filtered estuarine water 16 ppt salinity prior to the experiments. The approximate starting cell density was 2×10^6 cells per ml.
(§2) Each 600 ml glass beaker containing 400 ml dinoflagellate culture was allowed to grow under continuous fluorescent light following the exposure treatments. At daily intervals, samples were taken for cell counting and microscopical examination, extraction of chlorophyll pigments with acetone and for direct in-vivo chlorophyll fluorescence determination.
100 ml of each dinoflagellate culture treatment in triplicate were filtered through a 25 mm GFF filter under gentle vacuum. The filters were folded and placed in polypropylene centrifuge tubes and exactly 4 ml of HPLC grade acetone added. The samples were sonicated with a probe (Virsonic 50) for approximately 2 minutes to disrupt cells after which they are allowed to extract at 4° C. overnight in a refrigerator. After centrifuging for 5 minutes, the supernatant was transferred to a quartz fluorometer cell and the fluorescence recorded using a Hitachi F4500 scanning fluorescence detector. Excitation was fixed at 436 nm with a 10 nm slit and the emission is recorded at 660 nm with a 10 nm slit. The photomultiplier is operated at 700 V. Authentic chlorophyll a and b (Sigman Chemicals) were dissolved in HPLC grade acetone to calibrate the spectrofluorometer. Three point calibrations were performed in triplicate on a daily basis and relative fluorescence response converted into units of ug/l.
In-vivo fluorimetry with the Hitachi F4500 involves suspending the algal cells and transferring an aliquot to a disposable polycarbonate cuvette and recording the emission spectra from 600-720 nm with excitation fixed at 436 nm with a 10 nm slit width.
Direct cell counts were made with a compound binocular microscope and a hemacytometer counting triplicate samples in 80 squares.
(§3) End-points for quinone toxicity include cell motility, inhibition of cell division, inhibition of chlorophyll synthesis and chloroplate bleaching.
(§4) Assays for other species of phytoplankton including Chlorella sp. and Isochrysis galbana followed the above outlined procedures.

E. affinis = assay: Copepod assay (Eurytemora affinis); format: in vivo
Protocol: Cultures of Eurytemora affinis were continuously maintained in 15 seawater in a 8/16 hours light/dark regime fed every 48 hours on Isochrysis galbana. Toxicity bioassays are conducted on early instar naupliar larvae (chronic mortality/fecundity assay) or adults (acute LC50 assay).
Larvae were collected as follows. Cultures were filtered with a 200 m Nitex filter to separate the adults from earlier stages. Adults were then allowed to spawn for 48-72 hours in order to produce stage 1-3 naupliar larvae to be used for the assay. Assays were conducted on batches of 10 larvae per treatment (in triplicate). At 20° C., assays were continued for 12 days (shorter at higher temperatures). Endpoints were the percentage of F0 generation (present as adults) and total numbers of F1 generation (present as eggs or naupliar larvae). LC50 assays on adult copepods were conducted for 24 or 48 hours with percentage mortality as the end-point. All assays were conducted at 15 salinity on a 8 hour/16 hour light/dark regime.

Neochloris = assay: Phytoplankton toxicity, Neochloris; format: cell-based
Protocol: as §2, §3, §4

Fish eggs = format: in vivo
Minnow larvae = assay: Fathead minnow acute assay (fish assay); format: in vivo, Pimephales promelas
Protocol: Fathead minnows (Pimephales promelas) from in-house laboratory cultures were used for these tests. Animals were cultured in natural well water with hardness adjusted to >50 ppm (CaCO3) equivalents. Fish were spawned in a 20 gal spawning tank containing PVC tubing as refuges. Newly hatched larvae were transferred to a holding tank at densities of 50-100/l until use. Brine shrimp nauplii (Artemia) were used as food.
The tests were static renewal. The test durations were 48 hours and 96 hours. The temperature was 20° C.±1° C. Light quality was ambient laboratory illumination. Light intensity was 10-20 E/m^2/sec (50-100 ft-c). The photoperiod was 16 hours of light and 8 hours of dark. The test container was 400 ml. Renewal of test solutions occurred at 48 hours. The age of test organisms was 1-14 days, with a 24 hour age range. There were 10 organisms per container. There were 3 replicates per concentration of individual quinones in the ppm range. There are 5 test concentrations plus controls (initial range-finding tests performed on logarithmic series). All tests were conducted within 5 hours of dissolving the test compound. Animals were fed Artemia nauplii prior to the test and 2 hours prior to the 48 hour test solution renewal. […]
The test objectives are to determine LC50, LOEC and NOEC. […] Data are analyzed using Toxcalc 5.0.

Artemia salina = Artemia salina toxicity; format: in vivo
Protocol: (§5) The effectiveness and toxicity levels of the compounds were evaluated using active plant and animal species. The various compounds were added to the water at controlled rates and amounts.

Oyster larvae = Oyster larvae toxicity; format: in vivo
Protocol: as §5, §1

[1] = system: Banana snails (Bulimulis alternata); assay: Banana snail bioassay on treated lettuce leaves; format: in vivo; details: for Avoidance of treated leaves: lettuce leaves sprayed with 5, 10 and 20 mg/l aqueous solution
Protocol: Banana snails (Bulimulis alternata) were obtained from a commercial supplier and were fed lettuce leaves until the start of the bioassay.
Ten snails were placed in covered 1 liter glass beakers, on approximately 50 cm^2 lettuce leaves which had been sprayed with a fine mist of an aqueous solution of 2,3-dimethoxy-5-methyl-1,4-benzoquinone at three concentrations: 5, 10 and 20 mg/l. The treated leaves were allowed to dry before exposure to the snails. 10 snails were placed on approximately 50 cm^2 of untreated lettuce leaf as a control. Treatments and controls were maintained at approximately 20° C. in the dark.
Others climbed up the walls of the beakers away from the leaves. […] In contrast, the control group of snails consumed more than 10% of the leaf surface area after 24 hours and continued to feed and had consumed about 20% of the leaf after 48 hours.

## CC1=CC(=O)c2c(O)cccc2C1=O [compound 1, 2-methyl-5-hydroxy-1,4-napthoquinone]
Zebra mussel larvae; Zebra larvae
  Toxicity Data: Toxic at (concentration): Toxic at 200 ppb
T. isochrysis galbana
  Toxicity Data: Toxic at (concentration): Toxic at 50 ppb
E. affinis
  Toxicity Data: time to toxic effect at 5 ppm: 5 ppm < 10 min
Neochloris
  Toxicity Data: Toxic at (concentration): Toxic at 500 ppm
Fish eggs
  Toxicity Data: Kills & hatch prevention @ (concentration): prevention @ 1 ppm
Minnow larvae
  Toxicity Data: Toxic at (concentration): Toxic at 1 ppm
Artemia salina
  Toxicity Data: Toxic at (concentration): Toxic at 5 ppm

## CC1=CC(=O)c2ccccc2C1=O [compound 2, 2-methyl-1,4-naphthalenedione (Vitamin K3)]
Oyster larvae
  Toxicity Data: toxic concentration: 1 ppm
Zebra mussel larvae; Zebra mussel larvae
  Toxicity Data: Toxic at (concentration): Toxic at 500 ppm
T. isochrysis galbana
  Toxicity Data: Toxic at (concentration): Toxic at 500 ppb
E. affinis
  Toxicity Data: time to toxic effect at 5 ppm: 5 ppm < 15 min
Fish eggs
  Toxicity Data: Kills & hatch prevention @ (concentration): prevention @ 1 ppm
Artemia salina
  Toxicity Data: Toxic at (concentration): Toxic at 5 ppm

## CC1(S(=O)(=O)[O-])CC(=O)c2ccccc2C1=O.[Na+] (stereo not shown) [compound 3, 2-methyl-2-sodium metabisulfite-1,4-naphthalenedione]
Oyster larvae
  Toxicity Data: toxic concentration: 500 ppb
Zebra mussel larvae; Zebra mussel larvae
  Toxicity Data: Toxic at (concentration): Toxic at 1 ppm
T. isochrysis galbana
  Toxicity Data: Toxic at (concentration): Toxic at 500 ppb
E. affinis
  Toxicity Data: time to toxic effect at 5 ppm: 5 ppm < 15 min
Fish eggs
  Toxicity Data: Kills & hatch prevention @ (concentration): prevention @ 1 ppm
Artemia salina
  Toxicity Data: Toxic at (concentration): Toxic at 5 ppm

## O=C1c2ccccc2Cc2ccccc21 [compound 4, Anthrone]
T. isochrysis galbana
  Toxicity Data: Toxic at (concentration): Toxic at 2 ppm

## O=C1c2ccccc2C(=O)c2c1ccc(O)c2O [compound 5, 1,2-dihydroxyanthraquinone]
T. isochrysis galbana
  Toxicity Data: Toxic at (concentration): Toxic at 1 ppm
E. affinis
  Toxicity Data: Toxic at (concentration): Toxic at 1 ppm
Artemia salina
  Toxicity Data: Toxic at (concentration): Toxic at 5 ppm

## Cc1cc(O)c2c(c1)C(=O)c1cccc(O)c1C2=O [compound 6, 3-methyl-1,8-dihydroxyanthraquinone]
Zebra mussel larvae; Zebra mussel larvae
  Toxicity Data: Toxic at (concentration): Toxic at 1 ppm
T. isochrysis galbana
  Toxicity Data: Toxic at (concentration): Toxic at 1 ppm

## O=C(O)c1ccc2c(c1)C(=O)c1ccccc1C2=O [compound 7, anthraquinone-2-carboxylic acid]
T. isochrysis galbana
  Toxicity Data: Toxic at (concentration): Toxic at 1 ppm
E. affinis
  Toxicity Data: time to toxic effect at 5 ppm: 5 ppm < 5 hours

## O=C1c2ccccc2C(=O)c2c(Cl)cccc21 [compound 8, 1-chloroanthraquinone]
T. isochrysis galbana
  Toxicity Data: Toxic at (concentration): Toxic at 500 ppb
E. affinis
  Toxicity Data: time to toxic effect at 5 ppm: 5 ppm < 5 hours
Neochloris
  Toxicity Data: Toxic at (concentration): Toxic at 500 ppb

## Cc1ccc2c(c1)C(=O)c1ccccc1C2=O [compound 9, 2-methyl-anthraquinone]
Zebra mussel larvae; Zebra mussel larvae
  Toxicity Data: Toxic at (concentration): Toxic at 200 ppm
T. isochrysis galbana
  Toxicity Data: Toxic at (concentration): Toxic at 500 ppb
E. affinis
  Toxicity Data: time to toxic effect at 5 ppm: 5 ppm < 45 min
Neochloris
  Toxicity Data: Toxic at (concentration): Toxic 1 ppm
Artemia salina
  Toxicity Data: Toxic at (concentration): Toxic at 5 ppm

## O=C1C=CC(=O)c2ccccc21 [compound 10, 1,4-naphthalenedione]
Oyster larvae
  Toxicity Data: toxic concentration: Toxic at 5 ppm
T. isochrysis galbana
  Toxicity Data: Toxic at (concentration): Toxic at 1 ppm
E. affinis
  Toxicity Data: time to toxic effect at 5 ppm: 5 ppm < 10 min

## O=C1c2ccccc2C(=O)c2ccccc21 [compound 11, anthraquinone]
E. affinis
  Toxicity Data: time to toxic effect at 5 ppm: 5 ppm < 4 hours

## O=C1C=CC(=O)C=C1 [compound 12, 1,4-benzoquinone]
T. isochrysis galbana
  Toxicity Data: Toxic at (concentration): Toxic at 500 ppb
Fish eggs
  Toxicity Data: Control hatch at (concentration): at 1 ppm

## CC1=CC(=O)C=CC1=O [compound 13, methyl-1,4-benzoquinone (toluquinone)]
T. isochrysis galbana
  Toxicity Data: Toxic at (concentration): Toxic at 500 ppb

## COC1=C(OC)C(=O)C(C)=CC1=O [compound 14, 2,3-methoxy-5-methyl-1,4-benzoquinone]
T. isochrysis galbana
  Toxicity Data: Toxic at (concentration): Toxic at 5 ppm
[1]; after 48 hours
  Avoidance of treated leaves: avoidance behavior was again observed
[1]; all treatments, 24 hours
  Avoidance of treated leaves: significant avoidance relative to control
[1]; several snails of the treatment group, leaves completely intact
  Feeding activity: no feeding activity at all
